Tested on: porcine model of MI
Experiment: efficacy study: hemodynamics and LV function
Type: in vivo, swine
Details: for 2-D ejection fraction / LV end-diastolic lumen surface / LV end-diastolic wall thickness (infarct region) / LV end-systolic lumen surface / LV end-systolic wall thickness (infarct region) / Systolic Wall thickening (infarct region): echocardiography; for DAP / HR / MAP / SAP: fluid-filled catheter
Experimental: Next, an efficacy study was performed, in adherence to published guidelines for rigor and reproducibility, to evaluate the postulated benefit of DMX-10001 in a large-mammal model of MI. Briefly, 36 closed-chest swine (41 ± 2 kg) were subjected to regional ischemia by occluding the left anterior descending coronary artery (LAD) distal to the first diagonal branch for 60 min, followed by 24 h of reperfusion. Treatment with DMX-10001 (60 mg/kg/h for 0.5 h, followed by 17 mg/kg/h for 23.5 h) versus the vehicle was initiated 20 min prior to reperfusion and continued for 1 day. After 2 h of reperfusion, animals were allowed to recover from anesthesia. At 24 h of reperfusion, the infarct area (IA), area of no-reflow (NR), and area at ischemic risk (AAR) were determined. Transthoracic short-axis B-mode echocardiograms and measurements of LV pressure and its first derivative (LVdP/dt) were obtained at baseline and at 24 h of reperfusion. LV pressure–volume measurements were obtained at 24 h of reperfusion. Heart-type fatty acid binding protein (hFABP) release was measured, as a biomarker that correlates with IS and NR in swine at least as well as cardiac troponin I [30].
A transthoracic short-axis B-mode echocardiogram (ZS3, Zonare Medical Systems, Mountain View, CA) was performed to determine LV contractile performance. LV pressure and its first derivative (LVdP/dt) were determined using a micro-manometer-tipped catheter (SPR-350S, Millar Inc., Houston, TX), before infarct induction and again before killing. Terminal LV pressure–volume measurements were also performed, using a 7F conductance catheter (CD Leycom, Hengelo, The Netherlands) advanced into the LV [32]. After calibration of the system, pressure–volume loops were recorded during a breath hold.
Hemodynamic and LV global function were recorded and digitized online using a three-channel data acquisition program (ATCODAS, Dataq Instruments Inc., Akron OH) and stored on a computer for off-line analysis with a program written in MATLAB (Mathworks Inc., Natick, MA). A minimum of 10 s was selected for analysis of the digitized hemodynamic signals. Pressure–volume-related data were recorded and stored on a computer for off-line analysis (CD Leycom, Hengelo, The Netherlands). Statistical significance (P < 0.05, two tailed) for changes was determined by two-way ANOVA (time point in protocol x treatment) for repeated measures, followed by post hoc testing with the Bonferonni multiple comparison test.

[1] = Millar catheter, Day 1 Baseline
[2] = Millar catheter, Day 2 End of Reperfusion
[3] = conductance catheter, End of Reperfusion
[4] = Coronary artery occlusion 15 min
[5] = Coronary artery occlusion 40 min
[6] = Coronary artery occlusion 60 min

For COCCOc1ccc(-c2cn(-c3ccccc3)c3ncn(COP(=O)(O)O)c(=O)c23)cc1 [DMX-10001], the “LV dP/dtmax” value [1] was 1830 mmHg/s, the “LV dP/dtmin” value [1] was -2080 mmHg/s and the “LV dPdtP40” value [1] was 1640 mmHg/s. The LV end-diastolic pressure [1] was 8 mmHg, the “LV peak systolic pressure” value [1] was 102 mmHg and the tau [1] was 34 ms. For the same compound, the “LV dP/dtmax” value [2] was 920 mmHg/s, the “LV dP/dtmin” value [2] was -1240 mmHg/s and the “LV dPdtP40” value [2] was 800 mmHg/s. For the same compound, the LV end-diastolic pressure [2] was 13 mmHg, the “LV peak systolic pressure” value [2] was 78 mmHg and the tau [2] was 44 ms. For the same compound, the 3-D ejection fraction [3] was 34%, the Cardiac output [3] was 4.7 L/min and the Heart rate [3] was 109 beats/min. The LV end-diastolic pressure [3] was 10 mmHg, the LV end-diastolic volume [3] was 138 mL and the LV end-systolic volume [3] was 96 mL. The LV peak-systolic pressure [3] was 73 mmHg, the Stroke volume [3] was 45 mL/beat and the tau [3] was 28 ms. The 2-D ejection fraction (Day 1 Baseline) was 44%, the “LV end-diastolic lumen surface” value (Day 1 Baseline) was 1843 mm^2 and the “LV end-diastolic wall thickness (infarct region)” value (Day 1 Baseline) was 7.4 mm. The “LV end-systolic lumen surface” value (Day 1 Baseline) was 1034 mm^2, the “LV end-systolic wall thickness (infarct region)” value (Day 1 Baseline) was 10.7 mm and the “Systolic Wall thickening (infarct region)” value (Day 1 Baseline) was 49%. The 2-D ejection fraction (Day 2 End of Reperfusion) was 25%, the “LV end-diastolic lumen surface” value (Day 2 End of Reperfusion) was 1916 mm^2 and the “LV end-diastolic wall thickness (infarct region)” value (Day 2 End of Reperfusion) was 8.5 mm. For the same compound, the “LV end-systolic lumen surface” value (Day 2 End of Reperfusion) was 1435 mm^2, the “LV end-systolic wall thickness (infarct region)” value (Day 2 End of Reperfusion) was 8.7 mm and the “Systolic Wall thickening (infarct region)” value (Day 2 End of Reperfusion) was 3%. For the same compound, the “effect on hemodynamic and LV functional end-points after ischemia–reperfusion” value (efficacy study) was “neither worsened nor enhanced”, the DAP (Baseline) was 75 ± 15 mmHg and the HR (Baseline) was 124 ± 33 bpm. For the same compound, the MAP (Baseline) was 89 ± 16 mmHg, the SAP (Baseline) was 107 ± 14 mmHg and the DAP [4] was 76 ± 28 mmHg. It also gave an HR [4] of 89 ± 40 bpm, an MAP [4] of 91 ± 30 mmHg and an SAP [4] of 110 ± 34 mmHg. The DAP [5] was 58 ± 16 mmHg, the HR [5] was 78 ± 31 bpm and the MAP [5] was 71 ± 17 mmHg. The SAP [5] was 88 ± 18 mmHg, the DAP [6] was 52 ± 10 mmHg and the HR [6] was 71 ± 21 bpm. The MAP [6] was 65 ± 11 mmHg, the SAP [6] was 82 ± 13 mmHg and the DAP (Reperfusion (day 1) 10 min) was 61 ± 13 mmHg. For the same compound, the HR (Reperfusion (day 1) 10 min) was 99 ± 22 bpm, the MAP (Reperfusion (day 1) 10 min) was 74 ± 13 mmHg and the SAP (Reperfusion (day 1) 10 min) was 91 ± 13 mmHg. It also gave a DAP (Reperfusion (day 1) 30 min) of 63 ± 11 mmHg, an HR (Reperfusion (day 1) 30 min) of 120 ± 31 bpm and an MAP (Reperfusion (day 1) 30 min) of 73 ± 11 mmHg. It also gave an SAP (Reperfusion (day 1) 30 min) of 88 ± 11 mmHg, a DAP (Reperfusion (day 1) 120 min) of 62 ± 9 mmHg and an HR (Reperfusion (day 1) 120 min) of 94 ± 26 bpm. The MAP (Reperfusion (day 1) 120 min) was 73 ± 9 mmHg, the SAP (Reperfusion (day 1) 120 min) was 87 ± 10 mmHg and the DAP (Reperfusion (day 2) 22h 40 min) was 56 ± 13 mmHg. The HR (Reperfusion (day 2) 22h 40 min) was 112 ± 24 bpm, the MAP (Reperfusion (day 2) 22h 40 min) was 67 ± 13 mmHg and the SAP (Reperfusion (day 2) 22h 40 min) was 80 ± 13 mmHg. For the same compound, the DAP (Reperfusion (day 2) 23h 40 min) was 62 ± 17 mmHg, the HR (Reperfusion (day 2) 23h 40 min) was 103 ± 14 bpm and the MAP (Reperfusion (day 2) 23h 40 min) was 75 ± 18 mmHg. It also gave an SAP (Reperfusion (day 2) 23h 40 min) of 91 ± 20 mmHg.
